# Data: patent publication US20230089914A1 (Clearside Biomedical, Inc., priority 2020, published 2023)
# Assays:
# in vivo = settings: male, Dutch Belted, rabbit, topical or ocular, 4 mg
# Source text: The animals' eyes were examined by a board certified veterinary ophthalmologist using a slitlamp biomicroscope and an indirect ophthalmoscope. The exams occurred predose and on the indicated study days prior to sacrifice, as applicable. On specified days, at least two animals/time point were euthanized for the collection of blood (for plasma) and ocular tissues (aqueous humor, vitreous humor, retina, and sclera/choroid-RPE).
# For the initial study, the animals were acclimated to study conditions for 16 days prior to dose administration. At dosing, the animals weighed 1721 to 1941 g and were 5 months of age. All animals were housed in individual, suspended, stainless steel cages during acclimation and the test period. Certified Hi-Fiber Rabbit Diet #5325 (PMI) was provided. Water was provided fresh daily, ad libitum. Environmental controls for the animal room were set to maintain a temperature of 16 to 22° C. (Deviation), a relative humidity of 50±20% (Deviation), and a 12-hour light/12-hour dark cycle. […]
# The dosing formulation was drawn up into a 1-mL luer-lock syringe using a standard 21-gauge, 1-inch needle; any bubbles were expressed, and the standard needle was replaced by a 30-gauge microneedle 700 μm in length. […] Any dosing observations were recorded. […]
# [1] = Ocular distribution and pharmacokinetics after suprachoroidal injection of CLS-AX, 0.03 or 0.1 mg/eye (second study); type: in vivo, male pigmented Dutch Belted rabbits; settings: for tmax: Retina; for half-life: sclera/choroid-RPE (SCR), SCR; for Cmax: topical or ocular, study day 2
# [2] = Solubility of the API (product profile); type: physicochemical
compound,measurement,setting,value
CNC(=O)c1ccccc1Sc1ccc2c(/C=C/c3ccccn3)n[nH]c2c1 [Axitinib],half-life,in vivo,102 days
same,Cmax,in vivo; Cmax,857 ng/mL
same,eyes having quantifiable levels in retina,"[1]; 0.03 mg/eye, days 31 and 61",1 of 4
same,eyes having quantifiable levels in retina,"[1]; 0.1 mg/eye, Days 45 through 66",1 of 4
same,tmax,[1]; 0.03 mg/eye,1 days
same,tmax,[1]; 0.1 mg/eye,1 days
same,concentration at 15 day,"[1]; male, Dutch Belted, rabbit, other: suprachoroidal injection, retina, 0.03 mg/eye, by day 15, essentially below, read-out: mean retina concentrations (limit of quantitation)",< 16.7 ng/g
same,half-life,"[1]; male, Dutch Belted, rabbit, other: suprachoroidal injection, 0.03 mg/eye",10.7 days
same,half-life,"[1]; male, Dutch Belted, rabbit, other: suprachoroidal injection, 0.1 mg/eye",15.8 days
same,Cmax,"[1]; male, Dutch Belted, rabbit, retina, 0.03 mg/eye",4480 ng/g
same,Cmax,"[1]; male, Dutch Belted, rabbit, retina, 0.1 mg/eye",6260 ng/g
same,"mean AUC0-t, higher dose versus lower dose","[1]; retina, 0.1 vs 0.03 mg/eye",1.6 fold
same,"mean Cmax, higher dose versus lower dose","[1]; retina, 0.1 vs 0.03 mg/eye",1.4 fold
same,Solubility (solvent),[2],DMSO
same,solubility,[2]; in water,0.2 µg/mL
